Test results published in patent US10449175B2, “Rinse-off chemical mousse containing benzoyl peroxide” (GALDERMA RESEARCH & DEVELOPMENT, priority 2014, dated 2019).

Experiment: Stability over time of foaming surfactants in formulation intermediate B with high sodium bicarbonate
Assay type: physicochemical
Details: incorporated in formulation intermediate B, high concentration of sodium bicarbonate
Method: The applicant company has known how to select a foaming surfactant which is stable over time in the presence of a high concentration of sodium bicarbonate. The following surfactants were tested in the mixture: Sodium C14-C16 Olefin Sulfonate sold by Clariant under the name Hostapur® OSB or else Hostapur® OS Liq but also Nansa® LSS 495-H sold by Huntsman, Rodacal LSS 80 RPB from Rhodia, BIO-Terge® AS-90 beads from Stepan, Sodium Cocoyl Glycinate sold by Clariant under the name Hostapon® SG, Sodium Cocoyl Isethionate sold by Clariant under the name Hostapon® SCI85 G, Sodium Lauroyl Methyl Isethionate sold by Innospec under the name Iselux® LG, Decyl Glucoside sold by Cognis under the name Plantacare® 2000 Up, Zinc Coceth Sulfate sold by Zschimmer & Schwarz under the name Zetesol® Zn, Glyceryl Monolaurate sold by Rossow under the name POEM® DL 100, and Disodium PEG-5 Laurylcitrate Sulfosuccinate sold by Evonik under the name Rewopol SB C55®.

For Sodium C14-16 Olefin Sulfonate, the “retention of foaming and organoleptic properties (color, odor)” value was “retained its foaming properties and its organoleptic properties”.
